In assay [1] the target is T1, VEGFR2 (KDR) kinase (Homo sapiens, UniProt P35968).
T1 construct: purchased Life Technologies
The assay is described as follows: Z'-LYTE kinase assay, inhibitory activity for VEGFR2 kinase. The following applies: compound concentration of 100 nM, read-out: Degree of inhibition (%). Type of assay: biochemical. The method, then:
(§1) Inhibitory activity of the exemplary compounds among the foregoing compounds with respect to AXL, CLK2, VEGFR2 (KDR), NUAK1 kinases were measured. Z'-LYTE™ Kinase Assay Kit-Tyr 6 Peptide (Cat. No. PV4122, available from Life Technologies) for AXL, Z'-LYTE™ Kinase Assay Kit-Ser/Thr peptide 6 (Cat. No. PV3179, available from Life Technologies) for CLK2, Z'-LYTE™ Kinase Assay Kit (Cat. No. PV3190, available from Life Technologies) for VEGFR, and Adapta™ Universal Kinase Assay Kit (Cat. No. PV5099, available from Life Technologies) for NUAK1(ARK5) were used. The experiments were carried out by Life Technologies corporation.

For assay [2], the target named is T2, AXL kinase (Homo sapiens, UniProt P30530).
T2 construct: purchased Life Technologies
T2 sequence (P30530 26-894): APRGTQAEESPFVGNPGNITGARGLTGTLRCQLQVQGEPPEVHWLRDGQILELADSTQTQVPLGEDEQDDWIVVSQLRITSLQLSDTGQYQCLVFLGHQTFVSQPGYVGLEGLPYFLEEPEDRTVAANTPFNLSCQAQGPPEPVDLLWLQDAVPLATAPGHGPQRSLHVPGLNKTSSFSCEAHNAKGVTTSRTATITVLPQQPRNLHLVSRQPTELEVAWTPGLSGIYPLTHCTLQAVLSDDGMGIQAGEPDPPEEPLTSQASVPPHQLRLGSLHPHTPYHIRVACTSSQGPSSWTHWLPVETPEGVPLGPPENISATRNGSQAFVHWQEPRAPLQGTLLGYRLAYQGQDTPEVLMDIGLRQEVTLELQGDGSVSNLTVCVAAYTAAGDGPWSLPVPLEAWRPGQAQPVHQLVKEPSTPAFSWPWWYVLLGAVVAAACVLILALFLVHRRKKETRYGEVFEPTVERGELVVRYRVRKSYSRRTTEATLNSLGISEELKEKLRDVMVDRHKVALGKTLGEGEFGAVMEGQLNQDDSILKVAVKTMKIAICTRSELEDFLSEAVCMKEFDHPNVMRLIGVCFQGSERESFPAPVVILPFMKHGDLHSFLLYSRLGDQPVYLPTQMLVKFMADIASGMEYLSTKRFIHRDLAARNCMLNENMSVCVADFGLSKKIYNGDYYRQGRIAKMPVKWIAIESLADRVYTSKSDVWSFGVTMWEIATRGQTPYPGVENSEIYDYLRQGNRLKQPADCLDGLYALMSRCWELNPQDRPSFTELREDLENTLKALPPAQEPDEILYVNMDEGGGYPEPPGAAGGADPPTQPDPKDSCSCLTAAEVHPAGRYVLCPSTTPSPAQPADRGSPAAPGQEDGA
The assay is described as follows: Z'-LYTE kinase assay, inhibitory activity for AXL kinase. Type of assay: biochemical. The following applies: compound concentration of 100 nM, read-out: Degree of inhibition (%). The method, then:
as §1

The target in assay [3] is T3, NUAK1 (ARK5) kinase (Homo sapiens, UniProt O60285).
T3 construct: purchased Life Technologies
T3 sequence (O60285 1-661): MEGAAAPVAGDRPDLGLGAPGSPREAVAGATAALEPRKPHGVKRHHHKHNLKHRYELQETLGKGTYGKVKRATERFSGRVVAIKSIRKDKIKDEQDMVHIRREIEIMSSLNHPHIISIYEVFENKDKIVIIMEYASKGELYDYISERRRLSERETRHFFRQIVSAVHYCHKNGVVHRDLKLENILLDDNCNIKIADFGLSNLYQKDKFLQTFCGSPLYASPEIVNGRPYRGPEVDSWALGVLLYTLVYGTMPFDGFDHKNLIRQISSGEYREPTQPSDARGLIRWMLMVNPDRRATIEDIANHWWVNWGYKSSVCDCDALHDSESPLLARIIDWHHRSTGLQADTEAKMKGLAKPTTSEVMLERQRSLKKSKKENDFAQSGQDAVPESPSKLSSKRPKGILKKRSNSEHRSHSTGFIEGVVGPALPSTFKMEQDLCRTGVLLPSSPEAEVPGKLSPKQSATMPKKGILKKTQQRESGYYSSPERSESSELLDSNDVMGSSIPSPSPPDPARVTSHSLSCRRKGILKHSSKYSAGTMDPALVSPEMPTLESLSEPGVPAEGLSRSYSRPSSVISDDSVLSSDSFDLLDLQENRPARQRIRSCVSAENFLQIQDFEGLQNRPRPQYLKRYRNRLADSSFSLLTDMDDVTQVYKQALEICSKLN
As to the kind of experiment: Adapta Universal kinase assay, inhibitory activity for NUAK1 kinase. The following applies: compound concentration of 100 nM, read-out: Degree of inhibition (%). Type of assay: biochemical. The method, then:
as §1

The target of assay [4] is T4, CLK2 kinase (Homo sapiens, UniProt P49760).
T4 construct: purchased Life Technologies
The assay is described as follows: Z'-LYTE kinase assay, inhibitory activity for CLK2 kinase. The following applies: compound concentration of 100 nM, read-out: Degree of inhibition (%). Type of assay: biochemical. The method, then: as §1

Assay [5] relates to RS4-11 cell line. As to the kind of experiment: Inhibitory activity in cell growth, MTS test, RS4-11. It counts as cell-based. The following applies: Homo sapiens, 72 h, incubation three days. The method, then:
RS4-11 cell line was incubated in an RPMI1640 culture medium (10% fetal bovine serum (FBS)) at a temperature of 37° C. The incubated cell line was prepared in an amount of 2.0×10^4 cells/100 μL, and then plated on 96-well plates. The RPMI1640 medium was serially diluted with the test compounds at a concentration in a range of 10 μM to 0.1 nM at a ratio of 1/10. Subsequently, incubation was performed thereon for three days. An MTS test was performed to measure cell viability, and the 50% growth inhibition (GI50) value of the cell line was calculated using GraphPad Prism software.
(In general: Formazan colour is commonly taken as a measure of viable cells.)

In assay [6] the test system is MV4-11 cell line. As to the kind of experiment: Inhibitory activity in cell growth, MTS test, MV4-11. It counts as cell-based. The following applies: Homo sapiens, 72 h, incubation three days. The method, then: MV4-11 cell line was incubated in an IMDM medium (10% FBS) at a temperature of 37° C. The incubated cell line was prepared in an amount of 2×10^4 cells/100 μL, and then plated on 96-well plates. The IMDM medium was treated with cascade dilution of the test compounds at a concentration in a range of 1 μM to 0.01 nM at a rate of 1/10. Subsequently, incubation was performed thereon for three days. MTS test was performed to measure cell viability, and the 50% growth inhibition (GI50) value of the cell line was calculated using GraphPad Prism software.

SMILES strings stand for the structures.

T4 sequence (P49760 whole entry): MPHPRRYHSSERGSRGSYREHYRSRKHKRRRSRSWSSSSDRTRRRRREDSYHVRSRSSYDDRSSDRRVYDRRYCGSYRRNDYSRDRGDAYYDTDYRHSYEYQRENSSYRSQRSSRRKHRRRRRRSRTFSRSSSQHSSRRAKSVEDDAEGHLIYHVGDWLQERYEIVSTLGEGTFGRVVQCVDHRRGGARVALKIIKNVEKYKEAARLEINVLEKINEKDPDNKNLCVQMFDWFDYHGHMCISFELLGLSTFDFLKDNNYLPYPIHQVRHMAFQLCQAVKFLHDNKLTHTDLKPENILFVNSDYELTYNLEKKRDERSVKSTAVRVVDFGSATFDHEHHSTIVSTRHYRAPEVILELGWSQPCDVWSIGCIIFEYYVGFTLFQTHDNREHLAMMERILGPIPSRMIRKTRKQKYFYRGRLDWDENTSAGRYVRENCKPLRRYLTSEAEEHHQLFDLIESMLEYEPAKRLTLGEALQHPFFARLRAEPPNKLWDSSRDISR
T1 sequence (P35968 20-1356): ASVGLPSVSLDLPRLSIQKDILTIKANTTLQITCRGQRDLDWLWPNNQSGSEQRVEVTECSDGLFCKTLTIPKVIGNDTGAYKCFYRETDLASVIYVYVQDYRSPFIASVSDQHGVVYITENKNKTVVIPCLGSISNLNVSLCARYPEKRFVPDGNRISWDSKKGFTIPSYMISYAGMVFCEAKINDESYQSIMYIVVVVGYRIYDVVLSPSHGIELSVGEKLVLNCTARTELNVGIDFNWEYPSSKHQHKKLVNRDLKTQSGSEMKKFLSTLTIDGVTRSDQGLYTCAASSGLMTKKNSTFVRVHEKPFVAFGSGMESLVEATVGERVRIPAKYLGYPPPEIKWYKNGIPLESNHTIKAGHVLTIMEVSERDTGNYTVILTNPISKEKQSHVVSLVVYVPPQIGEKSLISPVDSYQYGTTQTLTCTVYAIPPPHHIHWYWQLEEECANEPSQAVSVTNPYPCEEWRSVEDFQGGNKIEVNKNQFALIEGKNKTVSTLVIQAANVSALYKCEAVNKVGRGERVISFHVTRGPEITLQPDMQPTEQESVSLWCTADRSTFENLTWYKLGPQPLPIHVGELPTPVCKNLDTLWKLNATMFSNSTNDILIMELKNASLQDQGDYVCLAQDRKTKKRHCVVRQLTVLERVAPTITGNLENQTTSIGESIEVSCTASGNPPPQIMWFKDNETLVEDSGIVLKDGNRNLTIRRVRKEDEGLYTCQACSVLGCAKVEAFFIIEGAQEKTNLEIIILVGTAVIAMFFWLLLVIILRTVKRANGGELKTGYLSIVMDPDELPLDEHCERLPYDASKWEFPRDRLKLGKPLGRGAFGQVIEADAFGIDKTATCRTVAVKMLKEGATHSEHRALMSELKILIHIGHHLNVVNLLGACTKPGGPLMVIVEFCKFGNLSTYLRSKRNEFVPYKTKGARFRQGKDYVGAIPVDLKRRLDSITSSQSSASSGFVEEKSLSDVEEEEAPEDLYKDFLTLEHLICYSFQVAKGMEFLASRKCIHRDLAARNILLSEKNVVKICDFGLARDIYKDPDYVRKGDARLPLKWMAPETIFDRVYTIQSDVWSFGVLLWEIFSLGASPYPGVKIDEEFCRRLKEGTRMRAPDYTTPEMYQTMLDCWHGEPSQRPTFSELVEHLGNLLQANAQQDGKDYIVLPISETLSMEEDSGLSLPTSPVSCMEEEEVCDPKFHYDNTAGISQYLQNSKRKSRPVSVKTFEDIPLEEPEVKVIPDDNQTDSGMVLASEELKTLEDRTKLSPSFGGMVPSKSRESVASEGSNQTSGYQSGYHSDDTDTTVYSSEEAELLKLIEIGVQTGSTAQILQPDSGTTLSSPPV

The term inhibition denotes how much of the control response was suppressed. Take `Cc1ccc2c(-c3nc(Nc4cc(C5CC5)cc(N5CCN(C(C)(C)CO)CC5)c4)ncc3Cl)c[nH]c2c1` [Example 17, 2-(4-(3-((5-chloro-4-(6-methyl-1H-indole-3-yl)pyrimidine-2-yl)amino)-5-cyclopropylphenyl)piperazine-1-yl)-2-methylpropane-1-ol]: the inhibition at 0.1 µM in assay [1] was 67%; in assay [2], 66%; in assay [3] it was 72%; in assay [4], 93%.

The term GI50 denotes the concentration at which growth is held to half of that of the control. Lower therefore signals greater sensitivity of the cells. On to `COc1ccc2c(-c3nc(Nc4cc(C5CC5)cc(N5CCN(CCO)CC5)c4)ncc3Cl)c[nH]c2c1` [Example 7, 2-(4-(3-((5-chloro-4-(6-methoxy-1H-indole-3-yl)pyrimidine-2-yl)amino)-5-cyclopropylphenyl)piperazine-1-yl)ethane-1-ol], for which the 50% growth inhibitory concentration (GI50) in assay [5] was 33 nM.

As to `Cc1ccc2c(-c3nc(Nc4cc(C5CC5)cc(N5CCC(N(C)C)C5)c4)ncc3Cl)c[nH]c2c1` (centres unmarked) [Example 16, 5-chloro-N-(3-cyclopropyl-5-(3-(dimethylamino)pyrrolidine-1-yl)phenyl)-4-(6-methyl-1H-indole-3-yl)pyrimidine-2-amine], the inhibition at 0.1 µM in assay [1] stood at 56%; in assay [2] it was 27%; in assay [3], 67%; in assay [4], 77%.

For `OCCN1CCN(c2cc(Nc3ncc(Cl)c(-c4c[nH]c5cc(F)ccc45)n3)cc(C3CC3)c2)CC1` [Example 1, 2-(4-(3-((5-chloro-4-(6-fluoro-1H-indole-3-yl)pyrimidine-2-yl)amino)-5-cyclopropylphenyl)piperazine-1-yl)ethane-1-ol], the inhibition at 0.1 µM in assay [1] came to 71%; in assay [2], 52%; in assay [3] it was 84%; in assay [4], 99%. For the same compound, in assay [5], the GI50 was 147 nM.

In assay [6], `CCc1cc(Nc2ncc(Cl)c(-c3c[nH]c4cc(C)ccc34)n2)cc(OCCN2CCC(O)CC2)c1` [Example 52] showed a GI50 of 0.8 nM. This counts as sub-nanomolar.

Take `Cc1ccc2c(-c3nc(Nc4cc(C5CC5)cc(N5CCC(N(C)C)CC5)c4)ncc3Cl)c[nH]c2c1` [Example 6, 5-chloro-N-(3-cyclopropyl-5-(4-(dimethylamino)piperidine-1-yl)phenyl)-4-(6-methyl-1H-indole-3-yl)pyrimidine-2-amine]: the inhibition at 0.1 µM in assay [1] amounted to 62%; in assay [2], 49%; in assay [3], 57%; in assay [4], 66%.

Consider `Cc1ccc2c(-c3nc(Nc4cc(O[C@@H]5CCN(CCO)C5)cc(C5CC5)c4)ncc3Cl)c[nH]c2c1` [Example 53, (R)-2-(3-(3-((5-chloro-4-(6-methyl-1H-indole-3-yl)pyrimidine-2-yl)amino)-5-cyclopropylphenoxy)pyrrolidine-1-yl)ethane-1-ol], for which it took 1.1 nM to inhibit growth in assay [6] by half (GI50).

For the compound `CN(C)C1CCN(c2cccc(Nc3ncc(Cl)c(-c4c[nH]c5ccccc45)n3)c2)C1` (centres unmarked) [Example 30, 5-chloro-N-(3-(3-(dimethylamino)pyrrolidine-1-yl)phenyl)-4-(1H-indole-3-yl)pyrimidine-2-amine], in assay [6], it took 0.8 nM to inhibit growth by half (GI50).

`COc1cc(Nc2ncc(Cl)c(-c3c[nH]c4ccccc34)n2)cc(C(=O)N2CCN(CCO)CC2)c1` [Example 50, (3-((5-chloro-4-(1H-indole-3-yl)pyrimidine-2-yl)amino)-5-methoxyphenyl)(4-(2-hydroxyethyl)piperazine-1-yl)methanone] returned a GI50 in assay [6] of 1.2 nM.

For the compound `CC(C)(CO)N1CCN(Cc2cc(Nc3ncc(Cl)c(-c4c[nH]c5ccccc45)n3)cc(C3CC3)c2)CC1` [Example 38, 2-(4-(3-((5-chloro-4-(1H-indole-3-yl)pyrimidine-2-yl)amino)-5-cyclopropylbenzyl)piperazine-1-yl)-2-methylpropane-1-ol], the inhibition at 0.1 µM in assay [1] worked out at 99%; in assay [2], 51%; in assay [3], 63%; in assay [4], 97%.

Consider `Cc1ccc2c(-c3nc(Nc4cc(CN5CCN(C(C)(C)CO)CC5)cc(C5CC5)c4)ncc3Cl)c[nH]c2c1` [Example 41, 2-(4-(3-((5-chloro-4-(6-methyl-1H-indole-3-yl)pyrimidine-2-yl)amino)-5-cyclopropylbenzyl)piperazine-1-yl)-2-methylpropane-1-ol], for which the values for the inhibition at 0.1 µM in assay [1] and in assay [2] were 63% and 50%, respectively.

For the compound `Cc1ccc2c(-c3nc(Nc4cc(C5CC5)cc(N5CCN(CCO)CC5)c4)ncc3Cl)c[nH]c2c1` [Example 2, 2-(4-(3-((5-chloro-4-(6-methyl-1H-indole-3-yl)pyrimidine-2-yl)amino)-5-cyclopropylphenyl)piperazine-1-yl)ethane-1-ol], the inhibition at 0.1 µM in assay [1] came out at 46%; in assay [2], 56%; in assay [3] it was 71%; in assay [4], 91%.

The record behind these values is patent publication US10519141B2, “Pyrimidine compound and pharmaceutical use thereof” (HANMI PHARM. CO., LTD., priority 2017, dated 2019).
